Experimental data taken from patent US8969408B2, “Use of lignan-type compounds or extract of nutmeg or aril of nutmeg comprising the same” (Biocare Co., Ltd., priority 2007, dated 2015).

Columns and labels:
Type in all cases: cell-based
Melan-a cells = assay: Melanin production inhibition activity in Melan-a cells
Procedure: Specifically, Melan-a cells were placed on a 6-well plate (melanin quantitated) at a concentration of 2×10^5 cells/mL (final volume=3 mL) and cultured in a 10% CO2 incubator (MCO-20AIC, Sanyo) at 37° C., using RPMI 1640 containing 10% FBS and 2 μM TPA (phorbol-12-myristate 13-acetate), for 24 hours. After removing the culture medium, the nutmeg ethanol extract prepared in Example 1-1 was added to RPMI 1640 medium and treated every day for 3 days. 5 days later, the culture medium was removed from the 6-well plate and, after treating with 0.25% trypsin-EDTA solution (Sigma Chemical Co.), cell pellets were collected and transferred to a 1.5 mL tube. After centrifuging at 10,000 rpm for 10 minutes, the supernatant was removed. Thus obtained pellets were dried at 60° C. and added to 100 μL of 1N NaOH in order to dissolve melanin contained in the cells. The solution was diluted with PBS and absorbance was measured at 475 nm using an ELISA reader. Melanin content was calculated according to the following Equation 1. The group to which the nutmeg ethanol extract was not used served as the control group. [formula] […] Melan-a cells were treated with the […] isolated in Example 2-1, and the degree of melanin production was measured in the same manner as Test Example 1-1.

tyrosinase [1] = target: T1, tyrosinase (Mus musculus, UniProt P11344); assay: Tyrosinase inhibition activity (DOPA chrome production) in treated Melan-a cells
T1 construct: endogenous in cells; host or cells: Melan-a cells (melanocytes)
T1 sequence (P11344 19-533): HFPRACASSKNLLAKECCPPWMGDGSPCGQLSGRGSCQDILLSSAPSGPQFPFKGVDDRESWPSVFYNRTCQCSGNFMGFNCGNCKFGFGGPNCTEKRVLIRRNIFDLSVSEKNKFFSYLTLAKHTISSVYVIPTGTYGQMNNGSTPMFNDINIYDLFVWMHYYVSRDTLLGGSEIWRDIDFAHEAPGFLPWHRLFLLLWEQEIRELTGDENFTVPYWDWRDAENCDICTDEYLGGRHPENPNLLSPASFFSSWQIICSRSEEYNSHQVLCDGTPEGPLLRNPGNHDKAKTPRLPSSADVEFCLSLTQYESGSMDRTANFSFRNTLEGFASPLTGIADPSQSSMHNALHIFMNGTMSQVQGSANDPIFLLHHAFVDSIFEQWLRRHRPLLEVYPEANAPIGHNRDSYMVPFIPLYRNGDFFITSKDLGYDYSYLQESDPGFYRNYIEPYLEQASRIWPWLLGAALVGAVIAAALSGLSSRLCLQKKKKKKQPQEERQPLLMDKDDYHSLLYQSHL
Procedure: 5 days later, the culture medium was removed from the 6-well plate and, after treating with 0.25% trypsin-EDTA solution (Sigma Chemical Co.), cell pellets were collected and transferred to a 1.5 mL tube. After adding 200 μL of phosphate buffer (pH 6.8) followed by centrifuging at 10,000 rpm for 10 minutes, the supernatant was collected. 150 μL of the supernatant was moved to a 96-well microplate and 50 μL of catechol was added. After culturing at 37° C. for 30 minutes, the amount of produced DOPA chrome was determined by measuring absorbance at 490 nm using a microplate reader.

tyrosinase [2] = assay: Inhibition of expression of tyrosinase (Western blotting), Melan-a cells; conditions: result in words
Procedure: (§1) Western blotting and Bradford protein assay were carried out in order to investigate if the nutmeg ethanol extract prepared in Example 1-1 inhibits the expression of tyrosinase, tyrosinase-related protein 1 (TRP-1) and tyrosinase-related proteins 2 (TRP-2).
(§2) Specifically, proteins were extracted from the cells treated in Test Example 1-1 with the nutmeg ethanol extract and subjected to electrophoresis in 10% SDS-polyacrylamide gel. Then, the proteins were transferred from the gel to a nitrocellulose membrane. After treating with 5% skim milk at room temperature for 1 hour, primary antibodies of tyrosinase, TRP-1 and TRP-2 diluted in 5% skim milk to 1:1000 were added and allowed to be incubated at room temperature for 2 hours. After the incubation, the membrane was washed with Tris-buffer saline Tween 20(TBST) twice, for 10 minutes per each, while shaking. Secondary antibodies which recognize the primary antibodies, diluted in 5% skim milk to 1:1000, were added and allowed to be incubated at room temperature for 1 hour. As for the primary antibodies, the membrane was washed with TBST three times, for 10 minutes per each, while shaking, and subjected to development by chemiluminescence.
(§3) Melan-a cells were treated with the macelignan isolated in Example 2-1, and it was investigated if the expression of tyrosinase, TRP-1 and TRP-2 was inhibited, in the same manner as Test Example 3-1.

[3] = test system: tyrosinase-related protein 1 (TRP-1); assay: Inhibition of expression of TRP-1 (Western blotting), Melan-a cells; conditions: result in words
Procedure: as §1, §2, §3

[4] = test system: tyrosinase-related proteins 2 (TRP-2); assay: Inhibition of expression of TRP-2 (Western blotting), Melan-a cells; conditions: result in words
Procedure: as §1, §2, §3

Row | Compound | inhibition at 50 µM (Melan-a cells; 50 μM) [%] | DOPA chrome production inhibition (tyrosinase [1]; concentration not given) | expression of tyrosinase (FIG. 5, FIG. 6) (tyrosinase [2]) | expression of TRP-1 (FIG. 5, FIG. 6) [3] | expression of TRP-2 (FIG. 5, FIG. 6) [4] | melanin production inhibition activity (FIG. 1, FIG. 2) (Melan-a cells; result in words, P<0.01) | DOPA chrome production / tyrosinase activity (FIG. 3, FIG. 4) (tyrosinase [1]; result in words, P<0.01)
1 | C/C=C/c1cc(OC)c2c(c1)[C@@H](C)[C@H](c1ccc3c(c1)OCO3)O2 [licarin E, 5-(7-methoxy-3-methyl-5-propenyl-2,3-dihydro-benzofuran-2-yl)-benzo[1,3]dioxole] | ~58.4 | about 60.04% |  |  |  |  | 
2 | COc1cc(C[C@H](C)[C@H](C)Cc2ccc3c(c2)OCO3)ccc1O [macelignan, 4-((2S,3R)-4-benzo[1,3]dioxol-5-yl-2,3-dimethyl-butyl)-2-methoxyphenol] |  |  | could inhibit the expression | could inhibit the expression | could inhibit the expression | superior melanin production inhibition activity | superior DOPA chrome production inhibition activity
